The text below walks through data of publication PMC4522657, “Identification of a DYRK1A Inhibitor that Induces Degradation of the Target Kinase using Co-chaperone CDC37 fused with Luciferase nanoKAZ” (Scientific Reports, 2015).

Each structure is given as a SMILES string. pEC50, pIC50: −log10 of the molar value. Some results are limits rather than exact numbers.

Assay [1] concerns the target T1, PIM2 (Homo sapiens, UniProt Q9P1W9).
T1 construct: purchased Carna Biosciences
The assay is described as follows: Kinase panel, CaNDY 1 µM. Format: biochemical. The note with it: CaNDY 1 µM relative to DMSO.

The target of assay [2] is T2, PAK5 (Homo sapiens, UniProt Q9P286).
T2 construct: purchased Carna Biosciences
T2 sequence (Q9P286 whole entry): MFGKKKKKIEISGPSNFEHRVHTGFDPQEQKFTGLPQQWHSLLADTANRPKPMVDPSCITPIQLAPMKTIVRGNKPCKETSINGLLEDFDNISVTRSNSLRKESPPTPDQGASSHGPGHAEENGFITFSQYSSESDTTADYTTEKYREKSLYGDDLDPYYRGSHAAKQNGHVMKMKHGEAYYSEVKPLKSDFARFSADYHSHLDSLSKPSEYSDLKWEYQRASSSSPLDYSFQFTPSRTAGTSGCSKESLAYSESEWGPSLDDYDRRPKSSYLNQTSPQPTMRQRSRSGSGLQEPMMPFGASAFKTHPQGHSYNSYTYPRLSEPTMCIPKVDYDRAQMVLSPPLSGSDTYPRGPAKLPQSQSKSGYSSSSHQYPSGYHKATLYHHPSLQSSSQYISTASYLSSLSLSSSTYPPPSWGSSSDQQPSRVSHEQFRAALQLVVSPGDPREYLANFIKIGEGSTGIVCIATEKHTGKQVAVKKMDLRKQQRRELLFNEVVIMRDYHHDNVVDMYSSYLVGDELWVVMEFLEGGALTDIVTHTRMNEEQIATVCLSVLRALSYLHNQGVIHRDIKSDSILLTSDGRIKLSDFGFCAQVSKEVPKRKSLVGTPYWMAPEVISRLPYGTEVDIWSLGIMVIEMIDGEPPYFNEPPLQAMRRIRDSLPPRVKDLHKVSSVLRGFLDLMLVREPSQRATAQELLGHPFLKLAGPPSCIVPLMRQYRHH
The assay is described as follows: Kinase panel, CaNDY 1 µM. In kind it is biochemical. The following applies: CaNDY 1 µM relative to DMSO.

Assay [3] concerns the target T3, EGFR(T790M/L858R) (Homo sapiens, UniProt P00533, L858R/T790M).
T3 construct: purchased Carna Biosciences
The assay is described as follows: Kinase panel, CaNDY 1 µM. Format: biochemical. The following applies: CaNDY 1 µM relative to DMSO.

Assay [4] concerns the target T4, interaction of CDC37-nanoKAZ with 3xFLAG-DYRK1A (Y319F/Y321F) (Homo sapiens, UniProt Q13627, Y319F/Y321F).
T4 construct: F2A peptide linking to EGFP (2A skipping releases EGFP; a 2A remnant may stay on DYRK1A) (C); expressed in transfected cells; host or cells: 293T cells stably expressing CDC37-nanoKAZ, transiently transfected with pcDNA5/FRT/TO 3xFLAG-DYRK1A (Y319F/Y321F)
The assay is described as follows: CDC37-nanoKAZ binding assay (ELISA of the CDC37-nanoKAZ interaction) in 293T cells. In kind it is cell-based. The method, then:
The cells were then treated with the indicated concentrations of small molecules for one hour. Cell lysates were added to FLAG antibody-coated 96-well plates and luminescence intensities were measured. The amount of bound 3xFLAG-DYRK1A was measured using a HRP-conjugated antibody against FLAG. The relative Imax for CDC37-nanoKAZ was normalized using the amount of bound protein.
Stable cell lines transfected with expression vectors for 3xFLAG-tagged DYRK family kinases and its mutants were lysed in ice-cold HENG buffer (50 mM HEPES-KOH, pH 7.9, 150 mM NaCl, 20 mM Na2MoO4, 2 mM EDTA, 5% Glycerol, 0.5% TritonX-100) containing protease inhibitor cocktail (Nacalai Tesque) on ice. […] The wells were wash three times with ice-cold HENG buffer and then a luminescence assay was performed.
The luminescence activity of the cell lysates was determined using a Centro LB 960 Microplate Luminometer (Berthold Technologies, Bad Wildbad, Germany). A reaction mixture containing bis-coelenterazine (final concentration of 0.1–1 μg/100 μL) in PBS containing 0.02% Tween20 and 20 mM EDTA was injected. The luminescence intensity was recorded at 0.1 s intervals for 10 s or 10 min. The maximum luminescence intensity (Imax), represented in relative luminescence units (rlu), was used in the study.
After measuring the luminescence intensities, the wells were washed three times with HENG buffer, and incubated with HRP-conjugated anti-FLAG antibody diluted with PBS containing […] and 2% fetal bovine serum at 37 °C for one hour. After extensive washing, […] Super Sensitive One Component HRP Microwell Substrate (SurModics, Eden Prairie, MN, USA) was added into the well and the reaction was stopped with sulfuric acid. Absorbance at 450 nm was measured with ARVO X5 (PerkinElmer). The relative amount of protein bound on the well was estimated from the absorbance.
In Supporting Figure S1a, the values of Imax are shown in kinetics plots. In Figs 2c,e, 3c, S1d, S3, and S4, the relative luminescence intensities are shown as the fold-change in the Imax values of the samples relative to Imax with EGFP. In Figs 4, 5a,c and 6c, the relative luminescence intensities were normalized to the amount of the bound 3xFLAG-DYRK1A mutant and calculated as the fold-change relative to the value at 0 μM of the compounds.
Small molecules in our original synthetic chemical library, including unpublished small molecule inhibitors of DYRK1A and its structural derivatives (data not shown), were added to the 96-well plates containing the transfected cells at a final concentration of 4 μM. The cells were then processed as described above.
On the technique in general: ELISA stands for enzyme-linked immunosorbent assay.

Assay [5] concerns the target T5, PIM1 (Homo sapiens, UniProt P11309).
T5 construct: purchased Carna Biosciences
The assay is described as follows: Kinase panel, CaNDY 1 µM. In kind it is biochemical. The note with it: CaNDY 1 µM relative to DMSO.

The target in assay [6] is T6, CLK2 (Homo sapiens, UniProt P49760).
T6 construct: purchased Carna Biosciences
T6 sequence (P49760 whole entry): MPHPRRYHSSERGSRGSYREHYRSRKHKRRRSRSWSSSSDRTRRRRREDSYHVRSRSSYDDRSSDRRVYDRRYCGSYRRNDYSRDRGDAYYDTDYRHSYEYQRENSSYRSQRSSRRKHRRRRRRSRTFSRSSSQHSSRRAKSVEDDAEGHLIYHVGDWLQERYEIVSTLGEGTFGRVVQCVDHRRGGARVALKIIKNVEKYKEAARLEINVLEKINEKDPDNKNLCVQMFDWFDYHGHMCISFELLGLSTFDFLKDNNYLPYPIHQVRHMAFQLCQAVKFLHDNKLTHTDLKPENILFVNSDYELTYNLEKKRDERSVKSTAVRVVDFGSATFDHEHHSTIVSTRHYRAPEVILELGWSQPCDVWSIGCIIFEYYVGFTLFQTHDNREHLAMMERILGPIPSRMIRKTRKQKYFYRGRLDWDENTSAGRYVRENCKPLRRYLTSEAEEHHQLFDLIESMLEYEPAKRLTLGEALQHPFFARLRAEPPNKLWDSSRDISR
Put plainly: Kinase panel, CaNDY 1 µM. In kind it is biochemical.

Assay [7] concerns mRNA coding for DYRK1A. The assay is described as follows: Reverse transcription and quantitative PCR in HEK293 cells. Format: cell-based. The following applies: CaNDY 2 µM, four days. The method, then:
Total RNA of the cells was isolated using Sepasol-RNA I Super G (Nacalai Tesque), and then subjected to reverse transcription with Prime Script RTase (Takara Bio). Realtime PCR was performed with FastStart Universal SYBR Green Master (Rox) (Roche Diagnostics, Basel, Switzerland) using StepOnePlus Real-Time PCR System (Applied Biosystems, Life technologies). The nucleotide sequences of the primers are as follows: the forward primer for DYRK1A, 5′-[…]-3′; the reverse primer for DYRK1A, 5′-[…]-3′; the forward primer for GAPDH, 5′-[…]-3′; and the reverse primer for GAPDH, 5′-[…]-3′.
Targeting the DYRK1A/CDC37 complex
Figure S6. Expression of endogenous DYRK1A mRNA in HEK293 cells treated with
HEK293 cells were cultured in the presence of CaNDY (2 µM) for four days, and subjected to
reverse transcription followed by quantitative PCR analysis. Bar graphs show means ± SD (n =
(1 picture or pasted object on this page, not shown here)

Assay [8] concerns the target DYRK1B (Homo sapiens, UniProt Q9Y463). Put plainly: In vitro kinase assay, substrate DYRKtide-F. The arrangement: full-length human recombinant kinases were expressed using a baculovirus expression system as amino-terminal GST-fusion proteins; GST (N); purchased Carna Biosciences; host or cells: baculovirus expression system. In kind it is biochemical. The following applies: 50 μM ATP, 1 μM DYRKtide-F. From the text: Detailed information on the assay conditions is available on the website of Carna Biosciences (http://www.carnabio.com/english/index.html; Kobe, Japan). In brief, full-length human recombinant kinases were expressed using a baculovirus expression system as amino-terminal GST-fusion proteins, and purified by glutathione-Sepharose chromatography. The GenBank accession numbers of DYRK1A, DYRK1B, DYRK2, and DYRK3 were NP_001387.2, NP_004705.1, NP_003574.1, and NP_003573.2. […] For each compound, a DMSO solution was diluted in assay buffer to yield a final concentration of 1% DMSO. After incubation for one hour at room temperature, substrate phosphorylation was analyzed by electrophoretic separation of the substrate and products using a Caliper LC3000 platform (Caliper Life Sciences, Mountain View, CA, USA). The phosphorylated product (P)/(P + substrate) ratio was calculated at each concentration of each small molecule and the percent inhibition was expressed relative to a control assay in the absence of the small molecule. […] The IC50 of each compound was calculated by interpolation on a log-concentration-response curve fitted with a four-parameter logistic equation.

The target of assay [9] is T7, CaMK1δ (Homo sapiens, UniProt Q8IU85).
T7 construct: purchased Carna Biosciences
T7 sequence (Q8IU85 whole entry): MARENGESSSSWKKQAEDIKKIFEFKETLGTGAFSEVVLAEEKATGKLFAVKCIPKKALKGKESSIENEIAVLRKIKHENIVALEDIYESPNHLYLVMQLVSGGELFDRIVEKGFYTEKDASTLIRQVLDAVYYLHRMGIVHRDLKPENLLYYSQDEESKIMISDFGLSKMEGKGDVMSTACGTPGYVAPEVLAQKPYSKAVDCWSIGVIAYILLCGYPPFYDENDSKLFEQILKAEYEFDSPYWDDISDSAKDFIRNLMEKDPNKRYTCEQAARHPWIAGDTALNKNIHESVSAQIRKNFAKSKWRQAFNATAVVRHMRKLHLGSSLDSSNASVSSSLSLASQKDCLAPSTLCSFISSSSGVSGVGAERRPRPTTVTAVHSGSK
Put plainly: Kinase panel, CaNDY 1 µM. In kind it is biochemical. The note with it: CaNDY 1 µM relative to DMSO.

Assay [10] addresses T8, PKCβ2 (Homo sapiens, UniProt P05771).
T8 construct: purchased Carna Biosciences
The assay is described as follows: Kinase panel, CaNDY 1 µM. Format: biochemical. The following applies: CaNDY 1 µM relative to DMSO.

T5 sequence (P11309 whole entry): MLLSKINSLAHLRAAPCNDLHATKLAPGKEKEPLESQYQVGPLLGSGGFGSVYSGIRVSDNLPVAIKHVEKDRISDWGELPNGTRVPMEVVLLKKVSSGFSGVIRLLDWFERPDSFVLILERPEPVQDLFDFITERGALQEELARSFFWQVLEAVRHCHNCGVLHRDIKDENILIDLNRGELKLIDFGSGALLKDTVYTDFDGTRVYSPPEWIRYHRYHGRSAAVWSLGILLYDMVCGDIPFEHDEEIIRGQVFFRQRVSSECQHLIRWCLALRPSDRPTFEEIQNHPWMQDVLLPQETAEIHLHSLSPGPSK
DYRK1B, sequence (Q9Y463 whole entry, the tested form may be a part): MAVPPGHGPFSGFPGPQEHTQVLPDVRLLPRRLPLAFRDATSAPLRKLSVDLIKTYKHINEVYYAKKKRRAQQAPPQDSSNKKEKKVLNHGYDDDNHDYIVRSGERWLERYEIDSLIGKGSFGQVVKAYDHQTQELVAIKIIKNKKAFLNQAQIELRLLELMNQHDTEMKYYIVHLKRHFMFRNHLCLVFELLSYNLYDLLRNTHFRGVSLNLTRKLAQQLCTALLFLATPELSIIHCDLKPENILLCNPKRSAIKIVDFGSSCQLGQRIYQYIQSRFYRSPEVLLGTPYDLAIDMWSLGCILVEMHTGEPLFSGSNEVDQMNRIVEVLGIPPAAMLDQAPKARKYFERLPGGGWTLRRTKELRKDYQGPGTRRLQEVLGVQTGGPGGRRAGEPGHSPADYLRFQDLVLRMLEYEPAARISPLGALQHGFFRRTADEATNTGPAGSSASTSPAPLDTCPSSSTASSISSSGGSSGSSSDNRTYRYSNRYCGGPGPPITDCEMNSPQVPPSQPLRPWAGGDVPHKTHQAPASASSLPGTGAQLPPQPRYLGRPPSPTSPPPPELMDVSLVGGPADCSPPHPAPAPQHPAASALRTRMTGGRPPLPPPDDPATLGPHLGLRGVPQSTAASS
T1 sequence (Q9P1W9 whole entry): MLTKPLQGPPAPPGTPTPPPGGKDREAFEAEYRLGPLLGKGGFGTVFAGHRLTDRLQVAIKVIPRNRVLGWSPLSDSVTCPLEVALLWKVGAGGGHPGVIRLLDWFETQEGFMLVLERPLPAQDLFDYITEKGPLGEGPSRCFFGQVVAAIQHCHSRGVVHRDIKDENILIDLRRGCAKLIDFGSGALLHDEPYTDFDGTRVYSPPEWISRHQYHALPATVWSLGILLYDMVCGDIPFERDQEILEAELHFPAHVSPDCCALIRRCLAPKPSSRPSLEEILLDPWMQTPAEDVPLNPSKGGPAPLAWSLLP
T8 sequence (P05771 1-673 isoform P05771-2): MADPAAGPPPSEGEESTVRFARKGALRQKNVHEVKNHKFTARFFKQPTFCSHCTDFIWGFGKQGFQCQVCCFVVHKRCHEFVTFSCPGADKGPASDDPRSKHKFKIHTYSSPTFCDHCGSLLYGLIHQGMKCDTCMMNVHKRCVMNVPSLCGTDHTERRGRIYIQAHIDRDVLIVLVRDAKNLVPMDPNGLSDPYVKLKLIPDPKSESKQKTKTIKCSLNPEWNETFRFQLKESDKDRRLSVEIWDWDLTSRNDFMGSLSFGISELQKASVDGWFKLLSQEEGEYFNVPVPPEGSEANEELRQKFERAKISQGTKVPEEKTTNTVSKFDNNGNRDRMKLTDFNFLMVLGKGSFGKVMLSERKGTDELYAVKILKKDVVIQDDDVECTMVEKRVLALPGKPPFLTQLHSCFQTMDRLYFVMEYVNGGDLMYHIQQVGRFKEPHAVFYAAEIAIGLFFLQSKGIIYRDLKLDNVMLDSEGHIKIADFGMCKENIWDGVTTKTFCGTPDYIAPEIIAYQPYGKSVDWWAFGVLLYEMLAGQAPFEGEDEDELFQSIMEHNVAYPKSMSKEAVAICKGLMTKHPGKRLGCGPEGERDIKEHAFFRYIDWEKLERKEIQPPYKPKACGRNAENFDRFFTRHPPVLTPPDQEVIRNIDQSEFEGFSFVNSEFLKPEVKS

`[H]/N=C1/NC(=O)C(=Cc2ccc3c(c2)CCO3)S1` [CaNDY, (Z)-5-[(2,3-dihydrobenzofuran-5-yl)methylene]-2-iminothiazolidin-4-one]: the remaining activity at 1 µM was 71.6% in assay [1]; 97.5% in assay [2]; 36.5% in assay [5]; 103% in assay [9]; 88.2% in assay [10]. Also, the “%Activity” value was determined as 106.6% in assay [3] and 9.0% in [6] (CaNDY 1 µM relative to DMSO). For the same compound, the pEC50 in [4] (293T cells stably expressing CDC37-nanoKAZ, treated one hour, read-out: EC50, decrease of relative luminescence intensity) is 6.39. Also, the “relative luminescence intensity in library screen” value in assay [4] (compounds at 4 μM, 253 compounds) is on record as “decreased the luminescence intensity to the lowest level”. The inhibition at 1 µM in assay [6] (1 μM CaNDY, read-out: percentage inhibition) was above 90%. The “expression of mRNA coding for DYRK1A” value in [7] is listed as “slightly decreased”. Besides, the pIC50 in [8] is 7.62.

Usually remaining activity stands for the signal under treatment as a percentage of the control signal. Broadly, the pEC50 is −log10 of the EC50, conventionally taken in molar units. The inhibition is how much of the control response was suppressed. In general, pIC50 refers to the IC50 on a negative log10 scale, so that one unit is a factor of ten.
